The values below come from PubChem BioAssay (NCI).

Test in all cases: growth of human tumour cells (NCI), 48 h
Experiment [1] has as its system SF-295 CNS.
Experiment [2] concerns HCC-2998 colon.
Experiment [3] deals with HCT-15 colon.
Experiment [4] concerns RPMI-8226 leukemia.
In experiment [5] the test system is IGROV1 ovarian.
The subject of experiment [6] is LOX IMVI melanoma.
For experiment [7], the system named is K-562 leukemia.
Experiment [8] deals with SN12C renal.
The subject of experiment [9] is SNB-19 CNS.

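A five-concentration, 48-hour dose response in 96-well plates underlies each endpoint, interpolated linearly between surrounding concentrations. GI50 is the concentration that inhibits growth by half. Definition used: TGI = concentration required for complete inhibition of growth.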

With `CCCCNC(=O)Oc1ccc(/C(=C(/C)Cc2ccc(OC)cc2)c2ccc(OCCN3CCCC3)cc2)cc1`, the GI50 was 1.65 µM in [1]; 1.83 µM in experiment [2]; 1.5 µM in experiment [3]; 2.2 µM in experiment [4]; 2.11 µM in experiment [5]; 1.67 µM in experiment [6]. Besides, the GI50 in [7] was 1.57 µM; in experiment [8], 1.77 µM; in experiment [9] it was 3.47 µM. Moreover, the TGI in [1] amounted to 3.14 µM; in experiment [2] it was 3.48 µM; in [3], 3.13 µM; in [4] it was 4.85 µM; in experiment [5], 4.52 µM; in experiment [6], 3.2 µM. Besides, the TGI in experiment [7] was found to be 5.13 µM; in [8], 3.27 µM; in experiment [9], 11.4 µM.

On to `CC1=C(Cl)C=CP(=O)(OC(C)C)C1` (configuration not stated), for which the TGI in [1], in experiment [2], in experiment [3], in [4], in [5] and in experiment [7] was above 100 µM in each case. The TGI in experiment [8] was above 100 µM.

With `C=C1C2CC(OC(C)=O)C3(C)C(c4ccoc4)OC(=O)[C@@H](O)[C@]13OC1C[C@H](OC(C)=O)C(C)(C)[C@H](CC(=O)OC)[C@]12C` (some centres not stated), the TGI in experiment [1], in experiment [2], in experiment [3], in [4], in [5] and in [6] was above 100 µM in each case. Besides, the TGI in experiment [7], in [8] and in [9] was above 100 µM throughout.

For `COc1ccc2c(c1)[n+]([O-])c(-c1ccc(C)cc1)c(N)[n+]2[O-]`, the TGI in experiment [1], in experiment [3], in experiment [4], in [5], in [7] and in experiment [8] was above 100 µM each time. Also, the TGI in [9] is above 100 µM.

With `C#CC1(O)c2ccccc2C(=O)c2ccccc21`, the TGI in experiment [1], in experiment [2], in experiment [5], in experiment [6], in [7] and in [8] was above 100 µM throughout. The TGI in [9] was above 100 µM.

Turning to `COc1ccc(-c2cc(-c3cc(Cl)cc(Br)c3O)[nH]c(=O)n2)cc1`, the TGI was 32.7 µM in [1]; 45.5 µM in [2]; 49 µM in experiment [4]; 52.4 µM in experiment [5]; 33.2 µM in experiment [6]; 41.7 µM in experiment [7]. For the same compound, the figures for the TGI in [8] and in experiment [9] were 32.3 µM and 57.2 µM, respectively.

Take `Cc1ccc(NC(=S)SCCC(=O)O)cc1`: the TGI in experiment [1], in experiment [2], in experiment [3], in experiment [4], in experiment [6] and in [7] was above 100 µM throughout. Further, the TGI in experiment [8] and in [9] was above 100 µM in each case.

With `CC(=O)[CH-]C(=O)c1ccccc1.CC(=O)[CH-]C(=O)c1ccccc1.Cl.[O-]c1ccccn1.[O-]c1ccccn1.[Ti+4]`, the GI50 in experiment [1] was 47.6 µM; in [2], above 100 µM; in experiment [3] it was above 100 µM; in experiment [4] it was above 100 µM; in experiment [5], above 100 µM; in [6], above 100 µM. Further, the GI50 in experiment [7], in experiment [8] and in experiment [9] was above 100 µM each time. Further, the TGI in experiment [1], in experiment [2], in experiment [3], in experiment [4], in [5] and in experiment [6] was above 100 µM in each case. Also, the TGI in experiment [7], in experiment [8] and in experiment [9] was above 100 µM throughout.

As for `CC12CO[C@@](C)(CC(S(=O)(=O)c3ccccc3)C1)O2` (some centres not stated), the TGI in experiment [1], in [2], in experiment [3], in [4], in experiment [5] and in [7] was above 100 µM in each case. Besides, the TGI in experiment [8] and in experiment [9] was above 100 µM each time.

Take `COC(=O)C1C=NNC1C(=O)OC` (configuration not stated): the TGI in [1], in experiment [2], in experiment [3], in experiment [4], in experiment [5] and in experiment [6] was above 100 µM throughout. Besides, the TGI in experiment [7], in [8] and in experiment [9] was above 100 µM in each case.

`O=[n+]1c2ccccc2n([O-])c2cc(Cl)ccc21`: the GI50 in [1] was 4.32 µM; in [2], 6.81 µM; in experiment [3], 2.55 µM; in experiment [4], 2.45 µM; in [5], 1.86 µM; in [6] it was 2.83 µM. For the same compound, the values for the GI50 in [7], in experiment [8] and in experiment [9] were 3.02 µM, 3.52 µM and 9.46 µM, respectively. Moreover, the TGI was 20.9 µM in experiment [1]; 20.5 µM in experiment [2]; 8.59 µM in [3]; 5.98 µM in [4]; 6.95 µM in experiment [5]; 11.9 µM in [6]. The TGI was 12.8 µM in [7], 14.1 µM in experiment [8] and 39.5 µM in experiment [9].

Take `O=S1(=O)CCCS(=O)(=O)C(c2ccccc2)=C1c1ccccc1`: the TGI is 32.4 µM in [2]; above 100 µM in [3]; above 100 µM in experiment [4]; above 100 µM in [5]; above 100 µM in experiment [6]; above 100 µM in experiment [7]. Also, the TGI in [8] was above 100 µM.

Consider `CCN(CC)C(=O)N1CCN(C=S)CC1`, for which the TGI in experiment [2], in [3], in [5], in [6], in experiment [7] and in experiment [8] was above 100 µM in each case. In addition, the TGI in experiment [9] is above 100 µM.

In the case of `Cc1ccc(-c2cc(=O)c3cc(C)c(C)c(C(=O)O)c3o2)cc1N`, the TGI in experiment [1], in experiment [3], in experiment [4], in experiment [5], in experiment [6] and in experiment [7] was above 100 µM throughout. Further, the TGI in experiment [8] and in experiment [9] was above 100 µM throughout.

For the compound `CCOC(=N)CC(=O)Nc1cccc(Cl)c1`, the TGI in experiment [1], in experiment [2], in experiment [5], in experiment [6], in experiment [7] and in experiment [8] was above 100 µM throughout. In experiment [9], this compound had a TGI above 100 µM.

On to `O=C(CC1(O)C(=O)Nc2ccccc21)c1ccc(O)cc1` (configuration not stated), for which the TGI in experiment [1], in [2], in [3], in [4], in experiment [5] and in [6] was above 100 µM throughout. The TGI in experiment [7], in experiment [8] and in experiment [9] was above 100 µM in each case.

Take `CC(C)CC(Nc1c(O)ccc2ccccc12)C(=O)O` (configuration not stated): the TGI in experiment [1] was 66.6 µM; in [2], above 100 µM; in experiment [3], above 100 µM; in [4], above 100 µM; in experiment [5], above 100 µM; in [6], above 100 µM. In addition, the TGI in experiment [7], in experiment [8] and in [9] was above 100 µM in each case.

`Clc1ccc2nc(-c3ccccc3)nc(Cl)c2c1`: the TGI in experiment [1], in experiment [2], in [3], in experiment [4], in [5] and in experiment [7] was above 100 µM each time. For the same compound, the TGI in [8] and in experiment [9] was above 100 µM throughout.

In the case of `CC(CNCCCNCCNCCCNCO)[N+](=O)[O-]` (configuration not stated), the TGI in experiment [1] is above 100 µM; in experiment [2], 31 µM; in experiment [3], 23.2 µM; in experiment [4], 35 µM; in experiment [5], 44.3 µM; in experiment [6] it was 28.2 µM. In addition, the TGI in [7] was 19.6 µM; in experiment [8] it was 28.4 µM; in [9], above 100 µM.

`O=S(=O)([O-])[O-].[Cl-].[NH2-].[NH2-].[NH2-].[NH2-].[Ru+3].c1ccncc1`: the TGI in [1], in [2], in experiment [3], in [4], in experiment [5] and in [6] was above 100 µM throughout. The TGI in experiment [7] and in experiment [8] was above 100 µM in each case.

For the compound `O=[N+]([O-])c1cc(Cl)ccc1OCc1ccccc1`, the TGI in experiment [1], in experiment [2], in experiment [3], in [4], in [5] and in [6] was above 100 µM throughout. Also, the TGI in experiment [7] and in [8] was above 100 µM each time.
